Experimental data as given in US20240174728A1, “A USE OF A POLYPEPTIDE COMPOUND IN THE PREPARATION OF DRUGS FOR PREVENTING OR TREATING INFLAMMATORY BOWEL DISEASES AND RELATED INTESTINAL FIBROSIS” (Shenzhen Turier Biotech Co., Ltd., priority 2021, published 2024).
Starred links: 1 amine or outer side, 2 acyl side, 3 side chain; linkers in the order of their positions; H or OH if unused. Non-standard residues stand in square brackets, D forms with d. Groups on a side chain read outwards from the residue. Primed or numbered codes have the meaning given here. No end group written: not given here. *: point of attachment. C20 diacid = O=C(O)CCCCCCCCCCCCCCCCCCC(=O)*; γGlu = O=C(O)[C@H](CCC(=O)[*:2])N[*:1]; Iva = CC[C@](C)(N)C(=O)O; PEG2′ = not defined here; Aib = CC(C)(N)C(=O)O

Experiments:
[1] = tested on: DSS induced acute intestinal fibrosis model of mouse; assay: DSS induced acute intestinal fibrosis model of mouse (Example 2); type: in vivo, Balb/c mice; conditions: 3% DSS Day 1-7, compared with model group; for blue staining area of colon tissues, area ratio of blue collagen fibers to colon tissue in Masson staining (FIG. 4B): #P≤0.05; for content of serum IL-6 (FIG. 7) / content of serum MMP-12 (FIG. 7) / collagenous fiber of colon tissues, Masson stained slice (FIG. 4A) / colon Ly-6g+ cells (neutrophile granulocyte infiltration), immunohistochemical staining (FIG. 6) / colon mucous layer α-SMA protein expression, immunohistochemical staining (FIG. 5): 120 μg/kg s.c. once/day; for content of serum IL-6 (FIG. 7) / content of serum MMP-12 (FIG. 7): 9th day serum, ##P≤0.01
From the text: The DSS in this example is purchased from MP Biomedicals (CAS No.: 9011-18-1), and the positive control compound 6-thioguanine (6-TG) is a compound based on prior art and is purchased from Shanghai Aladdin Biochemical Technology Co., Ltd. (CAS No.: 154-42-7).
(§1) After 7 days of adaptive feeding, 114 Balb/c mice of 6-8 weeks age (purchased from Guangdong Medical Laboratory Animal Center, with weight approx. 16-20 g) are subjected to the experiment. Then randomly put the mice into 19 groups, with 6 mice in each group. The groups are normal group, model group, 6-TG group and polypeptide compound groups 1-16.
Model the 19 groups of mice and administer the drug to them for 8 days. In the 8 days, the normal group is given normal drinking water and is given subcutaneous injection of PBS once every day. From Day 1 to Day 7, the model group drinks 3% DSS and is given subcutaneous injection of PBS once every day. On Day 8, 3% DSS is replaced with normal drinking water and subcutaneous injection of PBS is given once. From Day 1 to Day 7, the 6-TG group drinks 3% DSS and is given 2 mg/kg 6-TG by the means of gavage once every day. On Day 8, 3% DSS is replaced with normal drinking water and 2 mg/kg 6-TG is given by the means of gavage once. From Day 1 to Day 7, the polypeptide compound groups 1-16 drink 3% DSS and are given subcutaneous injection of 120 μg/kg polypeptide compounds 1-16 once every day. On Day 8, 3% DSS is replaced with normal drinking water and subcutaneous injection of 120 μg/kg polypeptide compounds 1-16 is given once.
In the drug administration period, the randomly selected polypeptide compound groups 3, 8, 11, 12, 13 and 14 and the normal group, model group and 6-TG group are used for testing, and the body weight, feces consistency and feces OB of the mice are recorded every day. The GraphPad Prism 8.3.0 software is used to plot the data into a diagram. Feces OB is measured by the benzidine method.
On the 9th day, all mice are killed. The serums and colon tissues of the mice are collected. The colon and cecum of the mice are removed together. The colon length is measured. The GraphPad Prism 8.3.0 software is used to plot the data into a diagram.
The serums of the mice from the randomly selected polypeptide compound groups 3, 8, 11, 12, 13 and 14 of the present invention and the normal group and model group are used for cytokine test.
(§2) The colons of the mice from the randomly selected polypeptide compound groups 3, 8, 11, 12, 13 and 14 and the normal group, model group and 6-TG group in the present invention are taken. Approx. 5 mm of intestinal segment is taken from the distal end of each colon and is fixed in 10% formalin. The specimens are fixed, dehydrated, wrapped in paraffin and sliced (5 μm). Then tissue HE staining, Masson staining, α-SMA α-SMA protein immunohistochemical staining and Ly-6g protein immunohistochemical staining are completed.

[2] = tested on: DSS induced chronic intestinal fibrosis model of mouse; assay: DSS induced chronic intestinal fibrosis model of mouse (Example 3, three cycles); type: in vivo, Balb/c mice; conditions: 2% DSS 5 days then water 2 weeks, 3 cycles, 120 μg/kg s.c. once/day, compared with model group; for blue staining area of colon tissues, area ratio of blue collagen fibers to colon tissue in Masson staining (FIG. 11B): #P≤0.05, ##P≤0.01; for content of serum IL-6 (FIG. 13) / content of serum MMP-8 (FIG. 13): serum at end of three cycles
From the text: as §1
In the whole process, the normal group is given normal drinking water and is given subcutaneous injection PBS once every day. The model group is first given 2% DSS for 5 days and then given normal drinking water for 2 weeks. This is 1 cycle. The cycle is done 3 times. Subcutaneous injection of PBS is given once every day. The 6-TG group is first given 2% DSS for 5 days and then given normal drinking water for 2 weeks. This is 1 cycle. The cycle is done 3 times. 2 mg/kg 6-TG is given by the means of gavage once every day. The polypeptide compound groups 1-16 are first given 2% DSS for 5 days and then given normal drinking water for 2 weeks. This is 1 cycle. The cycle is done 3 times. Subcutaneous injection of 120 μg/kg polypeptide compounds 1-16 is given once every day.
During the administration period, the polypeptide compound groups 3, 8, 11, 12, 13 and 14 and the normal group, model group and 6-TG group are randomly selected, and the body weight, feces consistency and feces OB of the mice are recorded every day. The GraphPad Prism 8.3.0 software is used to plot the data into a diagram.
After completion of the 3rd cycle, the mice are dissected. The serums and colon tissues of the mice are collected. The colon and cecum are removed together. The colon length is measured. The GraphPad Prism 8.3.0 software is used to plot the data into a diagram.
The serums of the mice from the randomly selected polypeptide compound groups 3, 8, 11, 12, 13 and 14 and the normal group and model group of the present invention are used for cytokine test.
as §2, with “normal” for “normal group, model”, “model” for “6-TG”, “Masson” for “Masson staining, α-SMA α-SMA protein immunohistochemical”, “Fibronectin” for “Ly-6g”

[3] = polypeptide 120 μg/kg s.c. or 6-TG 2 mg/kg p.o. once/day, Day 1 to Day 8
[4] = polypeptide 120 μg/kg s.c. or 6-TG 2 mg/kg p.o. once/day

Row | Compound | body weight (daily conditions, FIG. 2) [1, 3] | loose feces and hematochezia conditions (feces consistency and feces OB scores, FIG. 2) [1, 3] | colon tissue morphology, HE stained slice (FIG. 3) [1, 4] | blue staining area of colon tissues, area ratio of blue collagen fibers to colon tissue in Masson staining (FIG. 4B) [1, 4] | collagenous fiber of colon tissues, Masson stained slice (FIG. 11A) [2] | colon mucous layer Fibronectin protein expression, immunohistochemical staining (FIG. 12) [2] | colon tissue morphology, HE stained slice (FIG. 10) [2] | blue staining area of colon tissues, area ratio of blue collagen fibers to colon tissue in Masson staining (FIG. 11B) [2] | content of serum IL-6 (FIG. 13) [2] | content of serum MMP-8 (FIG. 13) [2] | content of serum IL-6 (FIG. 7) [1] | content of serum MMP-12 (FIG. 7) [1] | collagenous fiber of colon tissues, Masson stained slice (FIG. 4A) [1] | colon Ly-6g+ cells (neutrophile granulocyte infiltration), immunohistochemical staining (FIG. 6) [1] | colon mucous layer α-SMA protein expression, immunohistochemical staining (FIG. 5) [1]
1 | Nc1nc2nc[nH]c2c(=S)[nH]1 [Compound 6-TG, 6-thioguanine, reference compound] | decrease the body weight | noticeably improve the loose feces and hematochezia conditions | relatively improved | not improved | – | – | – | – | – | – | – | – | – | – | –
2 | His-(D-Ser)-Gln-Gly-Thr-Phe-Thr-Ser-Asp-Lys(Gly-Gly-Ser-Gly-Ser-Gly-γGlu-CO(CH2)18-COOH)-Ser-Lys-Tyr-Leu-Glu-Aib-Lys-Ala-Ala-Gln-Asp-Phe-Val-Glu-Trp-Leu-Lys-Ala-Gly-Gly-Pro-Ser-Ser-Gly-Ala-Pro-Pro-Pro-Ser (HXQGTFTSDKSKYLEXKAAQDFVEWLKAGGPSSGAPPPS; D-Ser, Aib, γGlu-C20 diacid lipidation; Compound 13; (2)..(2) X=D-Ser; (10)..(10) A side chain of Lys is linked to -Gly-Gly-Ser-Gly-Ser-Gly-AGlu-CO(CH2)18-COOH; (16)..(16) X=Aib) | – | – | become intact | noticeably decrease | noticeably decrease | clearly decreased | become intact | noticeably decrease | clearly decreases | clearly decreases | clearly decreases | clearly decreases | noticeably decrease | clearly decrease | clearly decreased
3 | His-(D-Ser)-Gln-Gly-Thr-Phe-Thr-Ser-Asp-Lys(Gly-Gly-Ser-Gly-Ser-Gly-γGlu-CO(CH2)18-COOH)-Ser-Lys-Tyr-Leu-Glu-Aib-Lys-Ala-Ala-Gln-Asp-Phe-Val-Glu-Trp-Leu-Lys-Ala-Gly-Gly-Pro-Ser-Ser-Gly-Ala-Pro-Pro-Pro-Ser-NH2 (HXQGTFTSDKSKYLEXKAAQDFVEWLKAGGPSSGAPPPS; D-Ser, Aib, γGlu-C20 diacid lipidation, C-amide; Compound 14; (2)..(2) X=D-Ser; (10)..(10) A side chain of Lys is linked to -Gly-Gly-Ser-Gly-Ser-Gly-AGlu-CO(CH2)18-COOH; (16)..(16) X=Aib) | – | – | become intact | noticeably decrease | noticeably decrease | clearly decreased | become intact | noticeably decrease | clearly decreases | clearly decreases | clearly decreases | clearly decreases | noticeably decrease | clearly decrease | clearly decreased
4 | His-(D-Ser)-Gln-Gly-Thr-Phe-Thr-Ser-Asp-Lys(PEG2-PEG2-γGlu-CO(CH2)18CO2H)-Ser-Lys-Tyr-Leu-Asp-Glu-Arg-Ala-Ala-Gln-Asp-Phe-Iva-Gln-Trp-Leu-Leu-Asp-Gly-Gly-Pro-Ser-Ser-Gly-Aib-Pro-Pro-Pro-Ser-NH2 (H[dS]QGTFTSDK([PEG2′-PEG2′-γGlu-C20 diacid])SKYLDERAAQDF[Iva]QWLLDGGPSSG[Aib]PPPS-NH2) [Compound 12] | – | – | become intact | noticeably decrease | noticeably decrease | clearly decreased | become intact | noticeably decrease | clearly decreases | clearly decreases | clearly decreases | clearly decreases | noticeably decrease | clearly decrease | clearly decreased
5 | His-(D-Ser)-Gln-Gly-Thr-Phe-Thr-Ser-Asp-Lys(PEG2-PEG2-γGlu-CO(CH2)18CO2H)-Ser-Lys-Tyr-Leu-Glu-Aib-Lys-Ala-Ala-Gln-Asp-Phe-Val-Glu-Trp-Leu-Lys-Ala-Gly-Gly-Pro-Ser-Ser-Gly-Ala-Pro-Pro-Pro-Ser-NH2 (H[dS]QGTFTSDK([PEG2′-PEG2′-γGlu-C20 diacid])SKYLE[Aib]KAAQDFVEWLKAGGPSSGAPPPS-NH2) [Compound 3] | – | – | become intact | noticeably decrease | noticeably decrease | clearly decreased | become intact | noticeably decrease | clearly decreases | clearly decreases | clearly decreases | clearly decreases | noticeably decrease | clearly decrease | clearly decreased
